Biological target: T1, BRD4 (first bromodomain, BRD4-BD1) (Homo sapiens, UniProt O60885)
T1 construct: BRD4-BD1 (first bromodomain)
Assay: fluorescence polarization competitive inhibition assay
Format: binding

SMILES: Cc1sc2c(c1C)C(c1ccc(Cl)cc1)=N[C@@H](CC(=O)NCCOCCOCCOCCOCCOCCOCCOCCOCc1cn(-c3ccc4c(NCCCNCc5ccc6[nH]ccc6c5)ccnc4c3)nn1)c1nnc(C)n1-2 [105B]
- Ki: 14.9 ± 0.97 nM

Source: publication doi:10.1101/2025.11.03.686228, “Design of Tissue-Selective PROTACs Through Recruiting E3 Ligase Scaffolding Protein MAGEA11” (bioRxiv, 2025)
